Results on ten compounds are retold here after ChEMBL document CHEMBL1201862, “PubChem BioAssay data set” (2004).

The structures appear in SMILES notation.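 Interpolation was linear, between the two tested concentrations surrounding the appropriate level; five concentrations were tested over 48 hours in 96-well plates. The concentration for 50% growth inhibition is given as GI50.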 Calls of active or inactive are those of the source. Rule as the data show it: active = GI50 up to about 1.1 µM and inactive = higher. A value given as a limit tells only on which side of the number the result lay.

Some test systems named below: 786-0; NCI-H460; A498; HCT-15; OVCAR-5; DU-145; UACC-257; ACHN; K562; MDA-MB-435; RPMI-8226; NCI-H23; RXF 393; OVCAR-3; A549; SNB-75; SF-539; UACC-62; HCC 2998; TK-10.
Assay in all cases: inhibition of tumour cell growth, NCI panel, 48 h

Regarding `CC(C)(C)C=C=C(C(C)(C)C)P(=O)(O)O`, the GI50 was > 100 µM (inactive) in the assay on 786-0; > 100 µM (inactive) with NCI-H460; > 100 µM (inactive) in the assay with A498; above 100 µM in the assay with HCT-15; > 100 µM (inactive) with OVCAR-5; > 100 µM (inactive) in the assay on DU-145. Also, the GI50 in the assay on UACC-257 was > 100 µM (inactive); in the assay on ACHN it was > 100 µM (inactive); with K562, > 100 µM (inactive); in the assay with MDA-MB-435, > 100 µM (inactive); with RPMI-8226 it was < 0.01 µM (active); in the assay with NCI-H23 it was > 100 µM (inactive). Besides, the GI50 in the assay on RXF 393, with OVCAR-3, with A549, with SNB-75, in the assay with SF-539 and in the assay on UACC-62 was > 100 µM (inactive) throughout. The GI50 in the assay with HCC 2998 and in the assay on TK-10 was > 100 µM (inactive) in each case.
For `O=C(CC(c1ccccc1)c1c(O)c2ccccc2oc1=O)c1ccccc1` (configuration not stated), the GI50 in the assay with 786-0 was > 100 µM (inactive); with NCI-H460, 65.5 µM (inactive); in the assay on A498 it was > 61.9 µM (inactive); in the assay on HCT-15, 78.9 µM; in the assay on OVCAR-5 it was > 100 µM (inactive); with DU-145, > 89.1 µM (inactive). Further, the GI50 with UACC-257 was > 83.9 µM (inactive); in the assay on ACHN, 98.4 µM (inactive); in the assay on K562, 61.5 µM (inactive); in the assay with MDA-MB-435, 72.6 µM (inactive); in the assay with RPMI-8226, 56.1 µM (inactive); with NCI-H23 it was 53.3 µM (inactive). In addition, the GI50 is > 53.1 µM (inactive) in the assay on RXF 393; 30.4 µM (inactive) in the assay with OVCAR-3; 54.6 µM (inactive) in the assay on A549; > 47.5 µM (inactive) with SNB-75; > 100 µM (inactive) in the assay with SF-539; 38.4 µM (inactive) in the assay on UACC-62. Also, the GI50 in the assay on HCC 2998 is 93.3 µM (inactive); in the assay on TK-10, > 100 µM (inactive).
On to `S=C1Cc2cc3ccccc3nc2-c2ccccc2N1`, for which the GI50 in the assay with 786-0 was 12.6 µM (inactive); in the assay with NCI-H460, 15.1 µM (inactive); in the assay with A498, 6.31 µM (inactive); in the assay on HCT-15, 42.3 µM; with OVCAR-5 it was 51.2 µM (inactive); with DU-145, 70.8 µM (inactive). The GI50 in the assay with UACC-257 is 29.1 µM (inactive); with ACHN it was 24 µM (inactive); with K562 it was > 100 µM (inactive); in the assay with MDA-MB-435, 29.7 µM (inactive); with RPMI-8226, > 50.7 µM (inactive); in the assay with NCI-H23 it was 23.9 µM (inactive). In addition, the GI50 with RXF 393 was 8.65 µM (inactive); in the assay with OVCAR-3, 9.57 µM (inactive); in the assay on A549, 26.1 µM (inactive); in the assay with SNB-75, 7.24 µM (inactive); in the assay with SF-539, 12.6 µM (inactive); with UACC-62, 8.45 µM (inactive). The GI50 in the assay with HCC 2998 is 16.2 µM (inactive); in the assay on TK-10, 24.3 µM (inactive).
For the compound `CC(=O)/C(=N\N=C(N)N)c1ccccc1`, the GI50 in the assay on 786-0 was > 100 µM (inactive); with NCI-H460 it was > 100 µM (inactive); in the assay with A498 it was > 100 µM (inactive); in the assay with HCT-15 it was above 100 µM; in the assay with OVCAR-5 it was > 100 µM (inactive); in the assay on DU-145 it was > 100 µM (inactive). In addition, the GI50 with UACC-257, in the assay with ACHN, in the assay with K562, in the assay on MDA-MB-435, with RPMI-8226 and in the assay on NCI-H23 was > 100 µM (inactive) each time. Moreover, the GI50 in the assay on RXF 393, with OVCAR-3, in the assay on A549, in the assay on SNB-75, in the assay on SF-539 and in the assay on UACC-62 was > 100 µM (inactive) throughout. The GI50 with HCC 2998 is 28.1 µM (inactive); in the assay with TK-10 it was > 100 µM (inactive).
Consider `CCOC(=O)CCC(NC(=O)C(N)Cc1ccc(N(CCCl)CCCl)cc1)C(=O)OCC` (configuration not stated), for which the GI50 is 0.475 µM (active) in the assay with 786-0; 0.0406 µM (active) with NCI-H460; 32.1 µM (inactive) with A498; 0.538 µM in the assay on HCT-15; 2.47 µM (inactive) in the assay with OVCAR-5; 0.249 µM (active) in the assay with DU-145. The GI50 in the assay with UACC-257 was 1.22 µM (inactive); in the assay on ACHN, 0.0532 µM (active); in the assay on K562 it was 0.446 µM (active); with MDA-MB-435, 1.49 µM (inactive); in the assay on RPMI-8226 it was 1.82 µM (inactive); in the assay with NCI-H23, 0.43 µM (active). Further, the GI50 was 0.515 µM (active) with RXF 393; 0.667 µM (active) in the assay with OVCAR-3; 2.72 µM (inactive) in the assay with A549; 0.733 µM (active) in the assay on SNB-75; 0.741 µM (active) in the assay on SF-539; 0.34 µM (active) with UACC-62. The results for the GI50 with HCC 2998 and in the assay on TK-10 were 0.662 µM (active) and 1.31 µM (inactive), respectively.
With `O=C(O)Cn1ccnc1[N+](=O)[O-]`, the GI50 in the assay on 786-0 was > 100 µM (inactive); with NCI-H460, > 100 µM (inactive); in the assay with A498, > 100 µM (inactive); with HCT-15 it was above 100 µM; with OVCAR-5, > 100 µM (inactive); with DU-145, > 100 µM (inactive). The GI50 in the assay on UACC-257, in the assay with ACHN, in the assay on K562, in the assay with MDA-MB-435, with RPMI-8226 and in the assay with NCI-H23 was > 100 µM (inactive) in each case. The GI50 with RXF 393, in the assay with OVCAR-3, in the assay on A549, in the assay on SNB-75, with SF-539 and in the assay with UACC-62 was > 100 µM (inactive) in each case. Further, the GI50 in the assay with HCC 2998 and with TK-10 was > 100 µM (inactive) each time.
Take `COc1ccc(-n2c(=O)n(C)c(=O)n2-c2c(C)c(C)c(C)c(C)c2C)cc1`: the GI50 was > 100 µM (inactive) in the assay on 786-0; > 100 µM (inactive) with NCI-H460; > 100 µM (inactive) with A498; above 100 µM in the assay with HCT-15; > 100 µM (inactive) in the assay on OVCAR-5; > 100 µM (inactive) in the assay on DU-145. The GI50 in the assay on UACC-257, in the assay on ACHN, in the assay on K562, in the assay on MDA-MB-435, with RPMI-8226 and with NCI-H23 was > 100 µM (inactive) in each case. For the same compound, the GI50 in the assay on RXF 393, with OVCAR-3, in the assay on A549, in the assay with SNB-75, in the assay with SF-539 and in the assay with UACC-62 was > 100 µM (inactive) each time. In addition, the GI50 in the assay with HCC 2998 and with TK-10 was > 100 µM (inactive) throughout.
Take `COC(=O)CCC12CCC(O1)c1ccccc12` (configuration not stated): the GI50 was > 100 µM (inactive) with 786-0; > 100 µM (inactive) in the assay on NCI-H460; > 100 µM (inactive) with A498; above 100 µM in the assay on HCT-15; > 100 µM (inactive) with OVCAR-5; > 100 µM (inactive) with DU-145. Also, the GI50 in the assay on UACC-257, in the assay with ACHN, in the assay on K562, with MDA-MB-435, in the assay on RPMI-8226 and in the assay on NCI-H23 was > 100 µM (inactive) each time. In addition, the GI50 in the assay on RXF 393, with A549, in the assay on SNB-75, with SF-539, in the assay with UACC-62 and in the assay with HCC 2998 was > 100 µM (inactive) throughout. Further, the GI50 in the assay on TK-10 was > 100 µM (inactive).
On to `COc1ccc(C23OCC(Cc4cc(OC)c(OC)cc42)C3COC(C)=O)cc1OC` (configuration not stated), for which the GI50 with 786-0 is > 100 µM (inactive); with NCI-H460 it was > 100 µM (inactive); with A498, > 100 µM (inactive); in the assay on HCT-15, above 100 µM; with OVCAR-5 it was > 100 µM (inactive); with DU-145 it was > 100 µM (inactive). The GI50 is > 100 µM (inactive) with ACHN; > 100 µM (inactive) in the assay with K562; > 100 µM (inactive) in the assay on MDA-MB-435; > 100 µM (inactive) with RPMI-8226; 56.1 µM (inactive) with NCI-H23; > 100 µM (inactive) in the assay with RXF 393. The GI50 in the assay on OVCAR-3, with A549, in the assay on SNB-75, in the assay on SF-539, in the assay with UACC-62 and in the assay with HCC 2998 was > 100 µM (inactive) in each case. Besides, the GI50 in the assay with TK-10 was > 100 µM (inactive).
As for `O=C1NC(c2ccccc2)C1N(Cc1ccccc1)Cc1ccccc1` (configuration not stated), the GI50 in the assay with 786-0 was > 100 µM (inactive); with NCI-H460 it was > 100 µM (inactive); in the assay on A498 it was > 100 µM (inactive); in the assay with HCT-15 it was above 100 µM; in the assay with OVCAR-5 it was > 100 µM (inactive); with DU-145 it was > 100 µM (inactive). Besides, the GI50 with UACC-257, with ACHN, with K562, in the assay with MDA-MB-435, in the assay on RPMI-8226 and in the assay with NCI-H23 was > 100 µM (inactive) in each case. Besides, the GI50 in the assay on RXF 393 was > 100 µM (inactive); in the assay on OVCAR-3, > 100 µM (inactive); in the assay with SNB-75, 25.5 µM (inactive); in the assay on SF-539 it was > 100 µM (inactive); in the assay with UACC-62, 93.1 µM (inactive); with HCC 2998, > 100 µM (inactive). Further, the GI50 in the assay on TK-10 is > 100 µM (inactive).
